Measured values published in publication PMC12160547, “Identification of a Novel Small Molecule STING Agonist Reshaping the Immunomicroenvironment of Pancreatic Ductal Adenocarcinoma” (International Journal of Biological Sciences, 2025).

How the values were obtained:
m-STING = molecular target: T1, m-STING (Mus musculus, UniProt Q3TBT3); experiment: Raw-lucia reporter activation fold; assay type: cell-based
T1 construct: Raw-lucia Fold (50 μM); endogenous in cells; host or cells: RAW-Lucia
T1 sequence (Q3TBT3 1-378): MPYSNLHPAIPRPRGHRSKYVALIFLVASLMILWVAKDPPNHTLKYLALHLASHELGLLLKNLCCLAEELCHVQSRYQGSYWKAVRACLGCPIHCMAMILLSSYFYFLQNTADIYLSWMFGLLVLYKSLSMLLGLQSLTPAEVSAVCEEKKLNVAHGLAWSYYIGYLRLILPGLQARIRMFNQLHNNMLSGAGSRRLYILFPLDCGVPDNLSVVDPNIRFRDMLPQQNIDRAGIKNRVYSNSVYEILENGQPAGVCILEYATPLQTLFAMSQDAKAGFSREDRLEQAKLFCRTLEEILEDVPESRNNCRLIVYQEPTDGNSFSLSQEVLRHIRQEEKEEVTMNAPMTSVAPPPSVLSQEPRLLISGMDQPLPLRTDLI

[1] = Metabolite profiling in liver microsomes, 60 min incubation; assay type: in vitro ADME, mouse; conditions: D166 incubated 60 min; selected ion chromatographic peak areas
[2] = tested on: orthotopic PDAC microenvironment; experiment: Flow cytometry and scRNA-seq of orthotopic PDAC microenvironment; assay type: in vivo, mice
Method: Bulk RNA sequencing was performed by GenePlus (China) on pancreatic cancer organoids treated with 10 μM of […] or MSA-2, compared to a control group, with three biological replicates. The sequencing data are available for access and analysis via the provided website. Single-cell RNA sequencing (scRNA-seq) was conducted by NovelBio (China) on in situ mouse pancreatic tumors following tissue digestion. The resulting sequencing data were analyzed using R software. Mouse tumors were digested using the Mouse Tumor Dissociation Kit (Miltenyi Biotec) according to the manufacturer's protocol. The resulting single-cell suspension was filtered through a 70-micron mesh to ensure a homogeneous cell population. Cells were stained with fluorescently labeled antibodies for flow cytometry at 4°C on ice for 30 minutes. After washing off unbound antibodies, fluorescence was detected using a Beckman CytoFlex S flow cytometer. For co-cultured immune cells, separated T cells and macrophages were similarly stained with flow cytometry antibodies. For cytokine staining, cells were pre-stimulated with the eBioscienceTM Cell Stimulation Cocktail for 4 hours. For intracellular protein staining, after surface staining, cells were fixed and permeabilized using the BD Cytofix/CytopermTM Fixation/Permeabilization Kit, followed by staining for intracellular proteins. Flow cytometry data were analyzed using FlowJo 10 software.

STING signaling = experiment: Relative gene expression in RAW-Lucia cells (RT-qPCR); assay type: cell-based, mouse
Method: RNA from tumor tissues or cells was extracted using the SteadyPure Universal RNA Extraction Kit (Accurate Biology) and reverse transcribed into cDNA with the Evo M-MLV Reverse Transcription Kit (Accurate Biology). Relative RNA expression levels were quantified using 2X Universal SYBR Green Fast qPCR Mix (Abclonal), and the results were recorded on the qTOWER®3 84 Real-Time PCR system.

[3] = tested on: STING and downstream signaling molecules; experiment: STING pathway western blot in Panc-1 cell line; assay type: cell-based; conditions: human pancreatic cell line Panc-1
Method: Tumor tissues or cells were thoroughly lysed in RIPA buffer containing protease and phosphatase inhibitors. The lysates were then centrifuged to collect the supernatant. Proteins were separated by electrophoresis in MOPS buffer and subsequently transferred onto a PVDF membrane. After blocking, the membrane was sequentially incubated with the primary antibody, secondary antibody, and chemiluminescent substrate (ECL) for imaging.
Western Blot showing cGAS-STING pathway protein expression of Panc-1 cell line
(B) CCK8 of Panc-1 cell line when
(C-D) Representative image (C) and statistic (D) of […]

[4] = Pharmacokinetic parameters, i.v. and p.o.; assay type: in vivo; conditions: plasma
[5] = Metabolite profiling in liver microsomes, 60 min incubation; assay type: in vitro ADME, human; conditions: D166 incubated 60 min; selected ion chromatographic peak areas
[6] = tested on: subcutaneous pancreatic tumor; experiment: Subcutaneous pancreatic tumor model; assay type: in vivo, C57BL/6 mice
Method: C57BL/6 mice were obtained from Phenotek (Shanghai) and randomly assigned to groups, with a minimum of six mice per group. For the subcutaneous tumor model, approximately 5 × 10^5 tumor cells were suspended in 150 μL PBS and injected into the left flank of the mice. Tumor size was measured every four days starting from day 7 post-injection. On days 9, 12, and 15, the mice were administered three different concentrations of the drug via peritumoral injection, while the Control group received only the solvent. The mice were euthanized on day 25, and tumors were excised, weighed, and further analyzed.
Multiplex cytokine detection was performed using Luminex cytokine bead array technology provided by WayenBio, Shanghai. In the mouse tumor model, levels of multiple cytokines were simultaneously measured and normalized to tumor weight. For the quantification of specific cytokines, such as IL-6 and IFN-β, enzyme-linked immunosorbent assay (ELISA) kits from Abclonal were used. The assays were conducted according to the manufacturer's instructions.

mouse STING (R231) = molecular target: T2, mouse STING (R231) (Mus musculus, UniProt Q3TBT3); experiment: Differential scanning fluorimetry (DSF); assay type: binding; conditions: n = 3
T2 sequence (Q3TBT3 1-378): T1 sequence (Q3TBT3 1-378)
Excerpt: (§1) human STING variants (R232) and mouse STING (R231) in differential scanning
(§2) fluorimetry (DSF) assay. The data were shown as the mean value of fluorescence (n =
(§3) (1 picture or pasted object on this page, not shown here)

[7] = tested on: human STING variants (R232); experiment: Differential scanning fluorimetry (DSF); assay type: binding; conditions: n = 3
Excerpt: as §1, §2, §3

[8] = Metabolite profiling in liver microsomes, 60 min incubation; assay type: in vitro ADME, rat; conditions: D166 incubated 60 min; selected ion chromatographic peak areas
[9] = flow cytometry of tumor suspensions

- Raw-lucia Fold (50 μM) (m-STING): 25.34 Fold
- Relative Peak Area Abundance (%) MLM [1]: 94.2%
- AUC(0-inf) ([4]; iv, average of three runs): 750 ng·h/mL
- MRT inf ([4]; iv, average of three runs): 15.6 min
- clearance ([4]; iv, average of three runs): 22.5 mL/min/kg
- half-life ([4]; iv, average of three runs): 45 min
- Vd ([4]; iv, average of three runs, read-out: Vz): 1.45 L/kg
- AUC(0-inf) ([4]; po, average of three runs): 2120 ng·h/mL
- MRT inf ([4]; po, average of three runs): 66 min
- half-life ([4]; po, average of three runs): 81 min
- bioavailability ([4]; p.o., oral bioavailability): 93.8%
- Relative Peak Area Abundance (%) HLM [5]: 98.5%
- thermal stability of mouse STING (R231) (mouse STING (R231)): increased
- Relative Peak Area Abundance (%) RLM [8]: 97.7%
Structure (SMILES): [2H]C([2H])([2H])Oc1cc2cc(C(=O)CCC(=O)O)sc2cc1OC([2H])([2H])[2H] [D166]
- proportion of ductal cells (including cancer cells) and fibroblasts ([2]; 10 mg/kg D166, 10X single-cell sequencing): significant reduction
- F4/80-positive macrophages among the myeloid cells [2, 9]: significant increase
- proportion of CD4+ and CD8+ T cells [2, 9]: significantly increased
- Relative expression (Cxcl10/actin) (STING signaling): 158.00 ± 2.91
- activation of STING and downstream signaling molecules [3]: dose- and time-dependent manner
- IL-6, IFN-β, and TNF-α levels in the TME ([6]; higher D166 doses, ELISA): increased
- tumor growth ([6]; peritumoral injection, different doses): significant dose-dependent inhibitory effect
- antitumor efficacy compared with other STING agonists ([6]; tumor weight, Figure S4A): comparable to that of other STING agonists
- thermal stability of human STING variants (R232) [7]: increased
